Measurements taken from article PMC6274554, “Synthetic Strategy and Anti-Tumor Activities of Macrocyclic Scaffolds Based on 4-Hydroxyproline” (Molecules, 2016).

What was measured:
Type in all cases: cell-based, human
[1] = test system: hepatocarcinoma cell line Hep G2; assay: MTT cytotoxicity assay, Hep G2; settings: Homo sapiens, HepG2, Hep G2 cells, 8000 cells/well, 24 h incubation with compound, absorbance 490 nm, read-out: IC50 (μmol/L) Hep G2
From the text: (§1) A small library derived from 6a–b, 9 and 10a–c was obtained by hydrolysis of the macrocycles and condensation with amines. The anti-tumor activities for lung cancer cell line A549, breast cancer cell line MDA-MB-231 and hepatocarcinoma cell line Hep G2 of all these new compounds were screened in vitro by an MTT assay. Most of the compounds show some inhibitory activities against A549, MDA-MB-231 and Hep G2. […] In the future, further structure–activity relationship studies will be performed to determine how the substituents affected the anti-tumor activity and to design the best chemical structure in the future.
(§2) The human lung cancer cell line A549, breast cancer cell line MDA-MB-231 and hepatocarcinoma cell line Hep G2 were cultured in Dulbecco’s modified Eagle’s medium (DMEM) supplemented with antibiotics (penicillin 50 U/mL; streptomycin 50 µg/mL) and 10% FCS. The incubation was at 37 °C in a humidified atmosphere of 5% CO2 in air before experiments. Cells were first seeded at a density of 8000 cells/well in a 96-well plate for 48 hours. Solutions containing respective concentrations of compounds were added into wells and incubation continued for another 24 hours. After that, the MTT (3-(4,5-dimethylthiazol-2-yl)-2,5-diphenyltetrazolium bromide) dye stock solution (10 μL, 5 mg/mL) was added to each well. After 4 h, the supernatant was removed and DMSO (100 μL) was added to solubilize the MTT. The absorbance was measured at a wave length of 490 nm (A490nm) on an ELISA microplate reader. Results were expressed as IC50 values.

[2] = test system: breast cancer cell line MDA-MB-231; assay: MTT cytotoxicity assay, MDA-MB-231; settings: Homo sapiens, MDA-MB-231 cells, 8000 cells/well, 24 h incubation with compound, absorbance 490 nm, read-out: IC50 (μmol/L) MDA-MB-231
From the text: as §1, §2

[3] = test system: lung cancer cell line A549; assay: MTT cytotoxicity assay, A549; settings: Homo sapiens, A549 cells, 8000 cells/well, 24 h incubation with compound, absorbance 490 nm, read-out: IC50 (μmol/L) A549
From the text: as §1, §2

For `NC(=O)[C@@H]1C[C@@H]2CN1C(=O)c1cccc(c1)OCCCCCCO2` [Compound 43, (10R,12S)-14-Oxo-2,9-dioxa-13-aza-tricyclo[13.3.1.1^10,13]eicosane-1(19),15,17-triene-12-carboxamide], the IC50 [1] was 64.9 µmol/L, the IC50 [2] was 66 µmol/L and the IC50 [3] was 69.7 µmol/L.
